These results are taken from patent US10258642B2, “Dextran sulfate for use in mobilization of cells” (TX MEDIC AB, priority 2013, dated 2019).

Data set [1] concerns HGF. Kind of data set: s.c. dose finding study, HGF-ELISA. Particulars: one hour after administration of AMD3100. A general note: ELISA stands for enzyme-linked immunosorbent assay.
The subject of data set [2] is peripheral blood cells. Kind of data set: s.c. dose finding study, hematological analysis of peripheral blood.
The test system of data set [3] is stem cells. Particulars: mice (Broxmeyer 2005); cited from earlier work.
The conditions of data set [4]: clinical trials (CHMP Assessment Report); cited from earlier work.
Data set [5] has as its system CFU-GM. The settings on record: cited from earlier work.
The test system of data set [6] is colony forming cells (CFCs). Particulars: mice (Sweeney 2000, 2002); cited from earlier work.
The test system of data set [7] is colony forming cells (CFCs). The settings on record: monkeys (Sweeney 2000, 2002); cited from earlier work.
Where [8] appears, read: AMD3100 5 mg/kg s.c., 1 hour, mean ± SEM.

Where two headings read alike, the source gives them in different places. Marks after values point to notes of the source that are not given here.

With `c1cc(CN2CCCNCCNCCCNCC2)ccc1CN1CCCNCCNCCCNCC1` [AMD3100, 1,1′-[1,4-phenylenebis (methylene)]-bis-1,4,8,11-tetraazacyclotetradecane, reference compound], in data set [1], the HGF levels worked out at 650 ± 230 pg/mL. Moreover, in data set [2] (setting [8]), the Basophils was 0.03 ± 0.0 10^9 cells/L, the Eosinophils was 0.3 ± 0.0* 10^9 cells/L, the LUC was 0.05 ± 0.0* 10^9 cells/L and the “Leukocytes (WBC)” value is 7.8 ± 0.6* 10^9 cells/L. In data set [2] (setting [8]), the Lymphocytes is 5.3 ± 0.4 10^9 cells/L, the MPV came to 8.0 ± 0.1, the Monocytes is 0.3 ± 0.0 10^9 cells/L and the Neutrophils is 1.8 ± 0.2* 10^9 cells/L. Moreover, in data set [2] (mouse, in vivo, sc, 5 mg/kg), the Erythrocytes is listed as 8.0 ± 0.0*** 10^12 cells/L, the Hemoglobin is 112.5 ± 0.9, the MCHC was 332.0 ± 2.0 g/L and the MCV is 42.7 ± 0.6 fL. Further, in data set [2] (mouse, in vivo, sc, 5 mg/kg), the Platelets is given as 706.8 ± 30.7** 10^9 cells/L and the Reticulocytes is listed as 186.3 ± 23.7 10^9 cells/L. For the same compound, in data set [3], the “time of peak in mobilized stem cells after plerixafor administration” value was 1 h. For the same compound, the “HSCT patients who experienced infections after transplantation” value in data set [4] is given as 20-25%.

For “dextran sulfate [dextran sulfate 10 kDa]”, the CFU-GM level in data set [5] (colonies with >50 cells, G-CSF 10 μg/kg daily for five days and/or dextran sulfate 15 mg/kg once on day 5 (Han 1998)) is 12.9±1.6 colonies. The “time of peaks in peripheral WBC, MNC and CFU-GM” value in data set [5] (i.v. injection of 15-30 mg, mice (Han 1998)) is 2 to 5 h. The “time of CFC mobilization after dextran sulfate administration” value in data set [6] was 3 h; in data set [7] it was 6 h.
